Source: ChEMBL document CHEMBL4842327, “Cyclic mimetics of kinase-inhibitory region of Suppressors of Cytokine Signaling 1: Progress toward novel anti-inflammatory therapeutics” (Eur J Med Chem, 2021)
Active and inactive are the calls of the source. The rule behind the calls is not given here. Peptide text beside a SMILES is read from it. * marks the point of attachment. Acm = CC(=O)NC*

Experiments:
[1] = tested on: RAW264.7; assay: Antioxidant activity in mouse RAW264.7 cells assessed as reduction in IFNgamma/IL6-induced intracellular superoxide generation by DHE staining based fluorescence confocal microscopy analysis; format: functional, cell-based
[2] = target: Tyrosine-protein kinase JAK2 (Mus musculus) (UniProt Q62120); assay: Inhibition of JAK2 in mouse VSMC cells assessed as reduction in IFNgamma/IL6- induced STAT1 phosphorylation by Western blot analysis; format: cell-based
Tyrosine-protein kinase JAK2 (Mus musculus), sequence (Q62120 whole entry): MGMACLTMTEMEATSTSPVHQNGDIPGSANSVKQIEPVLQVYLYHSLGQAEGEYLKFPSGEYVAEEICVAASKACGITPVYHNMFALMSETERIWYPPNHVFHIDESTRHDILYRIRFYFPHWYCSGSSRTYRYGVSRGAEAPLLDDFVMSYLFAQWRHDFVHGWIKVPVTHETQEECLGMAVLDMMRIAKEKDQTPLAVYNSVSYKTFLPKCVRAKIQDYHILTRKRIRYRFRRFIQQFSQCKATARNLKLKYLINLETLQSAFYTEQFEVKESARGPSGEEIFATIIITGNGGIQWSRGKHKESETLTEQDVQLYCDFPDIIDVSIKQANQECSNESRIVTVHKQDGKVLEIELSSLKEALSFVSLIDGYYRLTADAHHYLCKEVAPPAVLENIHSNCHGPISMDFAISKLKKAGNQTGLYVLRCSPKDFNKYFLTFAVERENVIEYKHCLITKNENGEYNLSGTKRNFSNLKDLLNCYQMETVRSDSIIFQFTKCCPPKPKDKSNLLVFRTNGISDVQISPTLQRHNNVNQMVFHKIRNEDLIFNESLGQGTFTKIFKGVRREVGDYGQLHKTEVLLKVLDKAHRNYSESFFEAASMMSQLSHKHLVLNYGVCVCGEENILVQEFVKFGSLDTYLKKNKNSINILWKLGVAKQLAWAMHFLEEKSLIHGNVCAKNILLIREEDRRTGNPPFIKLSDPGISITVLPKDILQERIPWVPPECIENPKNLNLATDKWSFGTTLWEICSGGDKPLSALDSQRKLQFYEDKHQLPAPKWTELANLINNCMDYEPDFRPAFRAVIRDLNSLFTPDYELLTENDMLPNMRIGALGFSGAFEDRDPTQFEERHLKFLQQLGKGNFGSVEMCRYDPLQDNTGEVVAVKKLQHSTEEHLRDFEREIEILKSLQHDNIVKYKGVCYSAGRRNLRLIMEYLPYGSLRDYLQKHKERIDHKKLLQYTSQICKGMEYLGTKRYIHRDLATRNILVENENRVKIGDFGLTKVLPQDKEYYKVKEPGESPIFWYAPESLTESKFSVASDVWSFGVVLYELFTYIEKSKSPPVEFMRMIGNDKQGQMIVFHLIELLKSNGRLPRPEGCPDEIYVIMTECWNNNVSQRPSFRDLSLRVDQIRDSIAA

[3] = target: Tyrosine-protein kinase JAK2 (Mus musculus) (UniProt Q62120); assay: Inhibition of JAK2 in mouse RAW264.7 cells assessed as reduction in IFNgamma/IL6-induced Cxcl10 mRNA expression by quantitative real time PCR analysis; format: cell-based
[4] = Stability of the compound in 25% fetal calf serum assessed as enzyme-mediated compound degradation at 80 uM measured after 24 hrs by RP-HPLC analysis; format: ADME, cell-free, Bos taurus; details: cattle, read-out: Drug degradation
[5] = tested on: VSMC; assay: Antioxidant activity in IFNgamma/IL6-stimulated mouse VSMC cells assessed as upregulation of catalase mRNA expression by quantitative real time PCR analysis; format: functional, cell-based
[6] = target: Tyrosine-protein kinase JAK2 (Mus musculus) (UniProt Q62120); assay: Inhibition of JAK2 in mouse RAW264.7 cells assessed as reduction in IFNgamma/IL6-induced Ccl2 mRNA expression by quantitative real time PCR analysis; format: cell-based
[7] = Cytotoxicity against mouse VSMC cells assessed as reduction in cell viability at 25 uM incubated for 6 to 24 hrs in DMEM medium containing 0.5% FBS by MTT assay; format: cell-based; details: time 6-24 hrs
[8] = tested on: VSMC; assay: Antioxidant activity in IFNgamma/IL6-stimulated mouse VSMC cells assessed as reduction in Nox1 mRNA expression by quantitative real time PCR analysis; format: functional, cell-based
[9] = target: Tyrosine-protein kinase JAK2 (Mus musculus) (UniProt Q62120); assay: Inhibition of JAK2 in mouse VSMC cells assessed as reduction in IFNgamma/IL6-induced Ccl2 mRNA expression by quantitative real time PCR analysis; format: cell-based
[10] = Cytotoxicity against mouse VSMC cells assessed as reduction in cell proliferation at 25 uM incubated for 24 hrs in DMEM medium containing 10% FBS by MTT assay; format: cell-based
[11] = tested on: VSMC; assay: Antioxidant activity in IFNgamma/IL6-stimulated mouse VSMC cells assessed as reduction in Nox4 mRNA expression by quantitative real time PCR analysis; format: functional, cell-based
[12] = target: Tyrosine-protein kinase JAK2 (Mus musculus) (UniProt Q62120); assay: Inhibition of JAK2 in mouse VSMC cells assessed as reduction in IFNgamma/IL6-induced Cxcl10 mRNA expression by quantitative real time PCR analysis; format: cell-based
[13] = target: Tyrosine-protein kinase JAK2 (Mus musculus) (UniProt Q62120); assay: Inhibition of JAK2 in mouse VSMC cells assessed as reduction in IFNgamma/IL6-induced Ccl5 mRNA expression by quantitative real time PCR analysis; format: cell-based
[14] = target: Tyrosine-protein kinase JAK2 (Mus musculus) (UniProt Q62120); assay: Inhibition of JAK2 in mouse VSMC cells assessed as reduction in IFNgamma/IL6-induced JAK2 phosphorylation by Western blot analysis; format: cell-based
[15] = target: Tyrosine-protein kinase JAK2 (Mus musculus) (UniProt Q62120); assay: Inhibition of JAK2 in mouse RAW264.7 cells assessed as reduction in IFNgamma/IL6-induced Ccl5 mRNA expression by quantitative real time PCR analysis; format: cell-based
[16] = tested on: VSMC; assay: Antioxidant activity in IFNgamma/IL6-stimulated mouse VSMC cells assessed as upregulation of Sod1 mRNA expression by quantitative real time PCR analysis; format: functional, cell-based
[17] = tested on: VSMC; assay: Antioxidant activity in mouse VSMC cells assessed as reduction in IFNgamma/IL6-induced intracellular superoxide generation by DHE staining based fluorescence confocal microscopy analysis; format: functional, cell-based
[18] = Stability of the compound in 25% fetal calf serum assessed as residual parent compound level at 80 uM measured after 42 hrs by RP-HPLC analysis; format: ADME, cell-free, Bos taurus; details: cattle, read-out: Stabilty
[19] = target: Tyrosine-protein kinase JAK2 (Homo sapiens, UniProt O60674); assay: Binding affinity to N-terminal His-tagged human JAK2 catalytic domain (826 to 1132 residues) expressed in baculovirus-infected Sf21 cells by Microscale thermophoresis analysis
Tyrosine-protein kinase JAK2, sequence (O60674 whole entry, the tested form may be a part): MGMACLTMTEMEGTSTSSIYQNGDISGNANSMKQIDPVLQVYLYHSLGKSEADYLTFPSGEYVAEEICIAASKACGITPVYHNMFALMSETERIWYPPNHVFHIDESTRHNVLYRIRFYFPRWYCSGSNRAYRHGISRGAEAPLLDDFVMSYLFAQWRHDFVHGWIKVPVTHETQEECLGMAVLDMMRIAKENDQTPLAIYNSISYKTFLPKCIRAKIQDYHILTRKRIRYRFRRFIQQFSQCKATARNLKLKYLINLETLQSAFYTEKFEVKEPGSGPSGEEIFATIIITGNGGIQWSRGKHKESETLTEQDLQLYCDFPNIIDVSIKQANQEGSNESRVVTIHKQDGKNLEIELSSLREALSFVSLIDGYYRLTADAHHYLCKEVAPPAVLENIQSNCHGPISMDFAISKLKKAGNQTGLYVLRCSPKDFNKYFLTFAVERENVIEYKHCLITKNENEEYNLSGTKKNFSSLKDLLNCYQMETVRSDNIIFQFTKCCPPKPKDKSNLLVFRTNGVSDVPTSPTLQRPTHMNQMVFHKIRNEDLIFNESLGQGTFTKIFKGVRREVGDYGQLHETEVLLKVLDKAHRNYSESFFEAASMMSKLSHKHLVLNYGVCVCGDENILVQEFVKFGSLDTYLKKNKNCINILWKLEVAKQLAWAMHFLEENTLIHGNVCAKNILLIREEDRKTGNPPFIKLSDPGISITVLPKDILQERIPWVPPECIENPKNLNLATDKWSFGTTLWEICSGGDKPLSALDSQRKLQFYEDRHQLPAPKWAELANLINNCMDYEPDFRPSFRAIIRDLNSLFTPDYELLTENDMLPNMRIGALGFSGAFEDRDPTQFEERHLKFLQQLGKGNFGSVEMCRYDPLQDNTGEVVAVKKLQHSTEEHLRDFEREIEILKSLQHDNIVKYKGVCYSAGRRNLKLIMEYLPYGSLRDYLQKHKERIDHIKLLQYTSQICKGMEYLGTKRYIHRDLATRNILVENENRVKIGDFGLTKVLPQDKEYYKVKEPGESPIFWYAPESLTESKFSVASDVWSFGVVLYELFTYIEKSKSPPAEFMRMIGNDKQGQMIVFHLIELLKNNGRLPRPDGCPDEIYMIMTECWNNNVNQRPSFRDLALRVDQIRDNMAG

[20] = target: Tyrosine-protein kinase JAK2 (Mus musculus) (UniProt Q62120); assay: Inhibition of JAK2 in mouse VSMC cells assessed as reduction in IFNgamma/IL6 induced STAT1 phosphorylation at 5 uM treated for 90 mins prior to cytokine stimulation and measured after 1 hr by DAPI staining based immunofluorescence confocal microscopy; format: cell-based; details: time 150.0 min
[21] = tested on: VSMC; assay: Inhibition of IFN-gamma/IL6-induced cell migration in mouse VSMC cells incubated for 45 hrs by scratch wound healing assay; format: functional, cell-based
[22] = target: Tyrosine-protein kinase JAK2 (Mus musculus) (UniProt Q62120); assay: Inhibition of JAK2 in mouse VSMC cells assessed as reduction in IFN-gamma/IL6 induced STAT1 nuclear translocation at 5 uM treated for 90 mins prior to cytokine stimulation and measured after 1 hr by DAPI staining based immunofluorescence confocal microscopy; format: cell-based; details: time 150.0 min

Row | Structure (SMILES) | Activity [1] | inhibition [2] | inhibition [3] | metabolised at 24 h, 80 µM [4] [%] | Activity [5] | inhibition [6] | Activity [7] | Activity [8] | inhibition [9] | Activity [10] | Activity [11] | inhibition [12] | inhibition [13] | inhibition [14] | inhibition [15] | Activity [16] | Activity [17] | Kd [19] [µM] | inhibition [20] [%] | inhibition [21] | also measured
1 | CC(=O)NCSC[C@H](NC(=O)[C@@H](NC(=O)[C@H](CC(=O)O)NC(C)=O)[C@@H](C)O)C(=O)N[C@@H](CCCNC(=N)N)C(=O)N[C@@H](CCC(N)=O)C(=O)N[C@H](C(=O)N[C@@H](Cc1ccccc1)C(=O)N[C@@H](CCCNC(=N)N)C(=O)N[C@@H](CO)C(=O)N[C@@H](Cc1cnc[nH]1)C(=O)O)[C@@H](C)O (Ac-DTC(Acm)RQTFRSH-OH) | Active | Active | Active | 50 | Active | Active | Non-Toxic | Active | Active | Non-Toxic | Active | Active | Active | Active | Active | Active | Active | – | – | – | –
2 | CC(=O)NCSC[C@@H]1NC(=O)[C@H]([C@@H](C)O)NC(=O)[C@@H](NC(C)=O)CC(=O)NCCCC[C@@H](C(=O)N[C@@H](Cc2cnc[nH]2)C(N)=O)NC(=O)[C@H](CCCNC(=N)N)NC(=O)[C@H](Cc2cccc3ccccc23)NC(=O)[C@H]([C@@H](C)O)NC(=O)[C@H](CCC(N)=O)NC(=O)[C@H](CCCNC(=N)N)NC1=O | – | – | – | 20 | – | – | Non-Toxic | – | – | Non-Toxic | – | – | – | – | – | – | – | – | – | – | remaining at 42 h, 80 µM [18]: 40%
3 | CC(=O)NCSC[C@@H]1NC(=O)[C@H]([C@@H](C)O)NC(=O)[C@@H](NC(C)=O)CC(=O)NCCCC[C@@H](C(=O)NC(Cc2cnc[nH]2)C(N)=O)NC(=O)[C@@H](CCCNC(=N)N)NC(=O)[C@H](Cc2ccccc2)NC(=O)[C@H]([C@@H](C)O)NC(=O)[C@H](CCC(N)=O)NC(=O)[C@@H](CCCNC(=N)N)NC1=O (stereo not given in full) | Active | Active | Active | – | Active | Active | – | Active | Active | – | Active | Active | Active | Active | Active | Active | Active | 44 | 65 | Active | inhibition [22]: 65%
4 | CC(=O)NCSC[C@@H]1NC(=O)[C@H]([C@@H](C)O)NC(=O)[C@@H](NC(C)=O)CC(=O)NCCCC[C@@H](C(=O)N[C@@H](Cc2cnc[nH]2)C(N)=O)NC(=O)[C@H](CCCNC(=N)N)NC(=O)[C@H](Cc2ccccc2)NC(=O)[C@H]([C@@H](C)O)NC(=O)[C@H](CCC(N)=O)NC(=O)[C@H](CCCNC(=N)N)NC1=O | – | – | – | 40 | – | – | Non-Toxic | – | – | Non-Toxic | – | – | – | – | – | – | – | – | – | – | –
5 | CC(=O)NCSC[C@@H]1NC(=O)[C@H]([C@@H](C)O)NC(=O)[C@H](NC(C)=O)CC(=O)NCCCC[C@@H](C(=O)NC(Cc2cnc[nH]2)C(N)=O)NC(=O)[C@@H](CCCNC(=N)N)NC(=O)[C@H](Cc2cccc3ccccc23)NC(=O)[C@H]([C@@H](C)O)NC(=O)[C@H](CCC(N)=O)NC(=O)[C@@H](CCCNC(=N)N)NC1=O (stereo not given in full) | Active | Active | Active | – | Active | Active | – | Active | Active | – | Active | Active | Active | Active | Active | Active | Active | 35 | 65 | Active | inhibition [22]: 65%
